The record followed here is patent US20040242459A1 (priority 2001, published 2004).

Molecules are shown by their SMILES.

The experiment addresses T1, recombinant human PPARδ (GST-PPARδ) (Homo sapiens, UniProt Q03181).
T1 construct: The full length human cDNAs for PPARδ and PPARα were subcloned into the pGEX-KT expression vector; made in house; host or cells: E. coli
T1 sequence (Q03181 1-441): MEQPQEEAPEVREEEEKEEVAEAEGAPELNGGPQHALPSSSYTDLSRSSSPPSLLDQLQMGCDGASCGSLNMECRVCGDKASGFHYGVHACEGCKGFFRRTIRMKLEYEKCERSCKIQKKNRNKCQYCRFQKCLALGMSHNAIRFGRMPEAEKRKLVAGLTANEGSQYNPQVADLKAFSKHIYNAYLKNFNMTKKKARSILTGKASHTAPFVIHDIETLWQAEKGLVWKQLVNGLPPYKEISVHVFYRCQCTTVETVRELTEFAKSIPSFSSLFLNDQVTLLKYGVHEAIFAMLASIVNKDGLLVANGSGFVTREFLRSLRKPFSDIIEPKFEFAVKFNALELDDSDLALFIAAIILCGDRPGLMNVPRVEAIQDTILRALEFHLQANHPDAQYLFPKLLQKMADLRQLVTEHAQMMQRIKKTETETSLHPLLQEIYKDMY
The experiment in a line: Scintillation Proximity Assay, displacement of [3H2]Compound B from PPARδ. The settings on record: human PPARδ binding; read-out: IC50 (μM: SPA or BND) Delta. Format: binding. The source says:
As an approach to identifying human PPAR agonists, a Scintillation Proximity Assay was used to characterize PPAR-γ, PPAR-δ, and PPAR-α ligands.
Human PPARγ2, human PPARδ and human PPARα were expressed as GST-fusion proteins in E. coli. The full length human cDNA for PPARγ 2 was subcloned into the pGEX-2 T expression vector (Amersham Pharmacia Biotech, Inc.). The full length human cDNAs for PPARδ and PPARα were subcloned into the pGEX-KT expression vector (Amersham Pharmacia Biotech, Inc.). E. coli containing the respective plasmids were propagated, induced, and harvested by centrifugation. The resuspended pellet was broken in a French press and debris removed by centrifugation. Recombinant human PPAR receptors were purified by affinity chromatography on glutathione sepharose. After application to the column, and one wash, receptor was eluted with glutathione. Glycerol (10%) was added to stabilize the receptor and aliquots were stored at −80° C.
After incubation for ˜16 h at 15° C. with shaking, the assay plates were counted in a Packard Topcount with quench correction.

For `CCCc1cc(Oc2ccccc2)ccc1OCCc1cc2cc(CC(=O)O)ccc2[nH]1` [Compound 2, {2-[2-(4-phenoxy-2-propylphenoxy)ethyl]-1H-indol-5-yl}acetic acid], the IC50 was found to be 15 µM.
